Laboratory results as given in PMC10066365, “Nemacol is a small molecule inhibitor of C. elegans vesicular acetylcholine transporter with anthelmintic potential” (Nature Communications, 2023).
Several values for one entry are separate records, joined by “and”; a condition that tells them apart may be missing. Equal values may be shown once.

Tested on: C. elegans
Assay: C. elegans motor phenotype scoring on solid media (Punc/jerky-unc, coiled, paralyzed), wild-type young adults
Type: in vivo, Caenorhabditis elegans
Details: for any phene, mean % fraction of young adults exhibiting any phenotype (coiled, jerky-Unc or paralyzed) / atypical locomotion (number of animals) / coiled (number of animals) / no phene (number of animals) / paralyzed (number of animals): one hour; for any phene, mean % fraction of young adults exhibiting any phenotype (coiled, jerky-Unc or paralyzed): mean of three biological replicates; for atypical locomotion (number of animals) / coiled (number of animals) / no phene (number of animals) / paralyzed (number of animals): young adults, 20 animals per trial, single replicate counts; for AVERAGES Fraction Coiled / AVERAGES Fraction Paralyzed / AVERAGES Fraction Punc: average of 3 replicates
[1] = 15 μM, 30 min, single replicate
[2] = 15 μM, 60 min, single replicate
[3] = 15 μM, 90 min, single replicate
[4] = 15 μM, 120 min, single replicate
[5] = 15 μM, 240 min, single replicate
[6] = 15 μM, 360 min, single replicate
[7] = 30 μM, 30 min, single replicate
[8] = 30 μM, 60 min, single replicate
[9] = 30 μM, 90 min, single replicate

## O=[N+]([O-])c1ccc(N2CCN(CC3CC=CCC3)CC2)cc1 (centres unmarked) [Nemacol-4]
3.75uM
  any phene, mean % fraction of young adults exhibiting any phenotype (coiled, jerky-Unc or paralyzed): 15%
  atypical locomotion (number of animals): 0 and 4 and 11
  coiled (number of animals): 0 and 1
  no phene (number of animals): 20 and 14 and 8
  paralyzed (number of animals): 0 and 1
15 μM, 30 min
  AVERAGES Fraction Coiled: 0.0
  AVERAGES Fraction Paralyzed: 0.0
  AVERAGES Fraction Punc: 0.222
[1]
  C1 (number of animals): 0
  C2 (number of animals): 0
  Fraction Coiled: 0.0
  Fraction Paralyzed: 0.0
  Fraction Punc: 0.111 and 0.4
  NP (number of animals): 16 and 11
  P (number of animals): 0
  Punc (number of animals): 2 and 7
15 μM, 60 min
  AVERAGES Fraction Coiled: 0.0185
  AVERAGES Fraction Paralyzed: 0.0
  AVERAGES Fraction Punc: 0.426
[2]
  C1 (number of animals): 1
  C2 (number of animals): 0
  Fraction Coiled: 0.0556
  Fraction Paralyzed: 0.0
  Fraction Punc: 0.4 and 0.6
  NP (number of animals): 10 and 7
  P (number of animals): 0
  Punc (number of animals): 7 and 11
15 μM, 90 min
  AVERAGES Fraction Coiled: 0.0
  AVERAGES Fraction Paralyzed: 0.0
  AVERAGES Fraction Punc: 0.352
[3]
  C1 (number of animals): 0
  C2 (number of animals): 0
  Fraction Coiled: 0.0
  Fraction Paralyzed: 0.0
  Fraction Punc: 0.5
  NP (number of animals): 9
  P (number of animals): 0
  Punc (number of animals): 9
15 μM, 120 min
  AVERAGES Fraction Coiled: 0.0185
  AVERAGES Fraction Paralyzed: 0.0
  AVERAGES Fraction Punc: 0.3
[4]
  C1 (number of animals): 0
  C2 (number of animals): 0
  Fraction Coiled: 0.0
  Fraction Paralyzed: 0.0
  Fraction Punc: 0.333 and 0.4
  NP (number of animals): 12 and 11
  P (number of animals): 0
  Punc (number of animals): 6 and 7
15 μM, 240 min
  AVERAGES Fraction Coiled: 0.0185
  AVERAGES Fraction Paralyzed: 0.0
  AVERAGES Fraction Punc: 0.0741
[5]
  C1 (number of animals): 1
  C2 (number of animals): 0
  Fraction Coiled: 0.0556
  Fraction Paralyzed: 0.0
  Fraction Punc: 0.0 and 0.167
  NP (number of animals): 15
  P (number of animals): 0
  Punc (number of animals): 0 and 3
15 μM, 360 min
  AVERAGES Fraction Coiled: 0.0
  AVERAGES Fraction Paralyzed: 0.0
  AVERAGES Fraction Punc: 0.0
[6]
  C1 (number of animals): 0
  C2 (number of animals): 0
  Fraction Coiled: 0.0
  Fraction Paralyzed: 0.0
  Fraction Punc: 0.0
  NP (number of animals): 18
  P (number of animals): 0
  Punc (number of animals): 0
15 μM, next day, single replicate
  Next Day Animals alive (moving fine): alive, recovered
15uM
  any phene, mean % fraction of young adults exhibiting any phenotype (coiled, jerky-Unc or paralyzed): 45%
  atypical locomotion (number of animals): 4 and 2 and 5 and 8
  coiled (number of animals): 0 and 1 and 6 and 3
  no phene (number of animals): 16 and 15 and 17 and 18 and 0
  paralyzed (number of animals): 0 and 9
30 μM, 30 min
  AVERAGES Fraction Coiled: 0.0556
  AVERAGES Fraction Paralyzed: 0.0
  AVERAGES Fraction Punc: 0.6
[7]
  C1 (number of animals): 0 and 2
  C2 (number of animals): 1 and 0
  Fraction Coiled: 0.0556 and 0.0 and 0.111
  Fraction Paralyzed: 0.0
  Fraction Punc: 0.6 and 0.444 and 0.7
  NP (number of animals): 6 and 10 and 3
  P (number of animals): 0
  Punc (number of animals): 11 and 8 and 13
30 μM, 60 min
  AVERAGES Fraction Coiled: 0.0752
  AVERAGES Fraction Paralyzed: 0.0
  AVERAGES Fraction Punc: 0.7
[8]
  C1 (number of animals): 0
  C2 (number of animals): 3 and 1 and 0
  Fraction Coiled: 0.167 and 0.0588 and 0.0
  Fraction Paralyzed: 0.0
  Fraction Punc: 0.7 and 0.529 and 0.9
  NP (number of animals): 2 and 7 and 1
  P (number of animals): 0
  Punc (number of animals): 13 and 9 and 17
30 μM, 90 min
  AVERAGES Fraction Coiled: 0.0556
  AVERAGES Fraction Paralyzed: 0.0556
  AVERAGES Fraction Punc: 0.667
[9]
  C1 (number of animals): 0
  C2 (number of animals): 1 and 2 and 0
  Fraction Coiled: 0.0556 and 0.111 and 0.0
  Fraction Paralyzed: 0.167 and 0.0
  Fraction Punc: 0.7 and 0.5 and 0.8
  NP (number of animals): 1 and 7 and 4
  P (number of animals): 3 and 0
  Punc (number of animals): 13 and 9 and 14
